Measured values published in ChEMBL document CHEMBL5696441 (Nat Chem Biol, 2011).
pIC50: −log10 of the molar value. Calls of active or inactive are those of the source. No cut-off for these calls is given here.

How the values were obtained:
[1] = molecular target: CDK3/Cyclin E (Homo sapiens) (UniProt P24864+Q00526); experiment: Inhibition of human CDK3/CyclinE1 assessed as residual activity at 1 uM using RBER-CHKtide as substrate in presence of 33P-ATP by ProQinase assay relative to control; assay type: protein-complex assay
[2] = Anti-inflammatory activity against human derived high respond PBMC cells assessed as inhibition in stimulated IL-13 cytokine release incubated for 2 hrs in the presence of LPS/SEB/aCD28 by Luminex based sandwich immunoassay; assay type: functional, cell-based
[3] = tested on: PBMC; experiment: Anti-inflammatory activity against human derived high respond PBMC cells assessed as increase in stimulated IL-12p70 cytokine release at 1 uM incubated for 2 hrs in the presence of LPS/SEB/aCD28 by Luminex based sandwich immunoassay; assay type: functional, cell-based
[4] = tested on: Tyrosine-protein kinase ABL1 (Homo sapiens), P00519 [Y253F]; experiment: Inhibition of human ABL1 Y253F mutant assessed as residual activity at 1 uM using Poly(Ala,Glu,Lys,Tyr)6:2:5:1 as substrate in presence of 33P-ATP by ProQinase assay relative to control
[5] = molecular target: Glycogen synthase kinase-3 beta (Homo sapiens) (UniProt P49841); experiment: Inhibition of GSK3beta (unknown origin) assessed as remaining activity at 1 uM by Kinome scan method relative to control
[6] = molecular target: Serine/threonine-protein kinase Nek7 (Homo sapiens) (UniProt Q8TDX7); experiment: Inhibition of NEK7 (unknown origin) assessed as remaining activity at 1 uM by Kinome scan method relative to control
[7] = molecular target: Serine/threonine-protein kinase Nek6 (Homo sapiens) (UniProt Q9HC98); experiment: Inhibition of human NEK6 assessed as residual activity at 1 uM using RBER-GSK3 as substrate in presence of 33P-ATP by ProQinase assay relative to control
[8] = molecular target: Phosphatidylinositol 4,5-bisphosphate 3-kinase catalytic subunit alpha isoform (Homo sapiens) (UniProt P42336); experiment: Inhibition of PIK3CA (unknown origin) assessed as remaining activity at 1 uM by Kinome scan method relative to control
[9] = molecular target: Serine/threonine-protein kinase MARK1 (Homo sapiens) (UniProt Q9P0L2); experiment: Inhibition of human MARK1 assessed as residual activity at 1 uM using RBER-CHKtide as substrate in presence of 33P-ATP by ProQinase assay relative to control
[10] = molecular target: T1, Mitogen-activated protein kinase 12 (Homo sapiens) (UniProt P53778); experiment: Inhibition of human P38gamma assessed as residual activity at 1 uM using RBER-IRStide as substrate in presence of 33P-ATP by ProQinase assay relative to control
T1 sequence (whole entry): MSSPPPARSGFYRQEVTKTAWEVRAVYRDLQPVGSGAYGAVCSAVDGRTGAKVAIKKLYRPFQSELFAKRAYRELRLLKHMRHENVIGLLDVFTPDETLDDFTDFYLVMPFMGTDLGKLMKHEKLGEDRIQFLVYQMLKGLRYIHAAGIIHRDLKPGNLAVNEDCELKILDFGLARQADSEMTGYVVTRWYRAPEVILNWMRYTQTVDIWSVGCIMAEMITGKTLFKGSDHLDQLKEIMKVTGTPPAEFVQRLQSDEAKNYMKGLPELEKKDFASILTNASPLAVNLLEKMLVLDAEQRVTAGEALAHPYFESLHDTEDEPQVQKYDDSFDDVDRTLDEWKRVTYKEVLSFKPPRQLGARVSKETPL

[11] = tested on: Epidermal growth factor receptor (Homo sapiens), P00533 [G719C]; experiment: Inhibition of EGFR G719C mutant (unknown origin) assessed as remaining activity at 1 uM by Kinome scan method relative to control
[12] = molecular target: Cyclin-dependent kinase-like 2 (Homo sapiens) (UniProt Q92772); experiment: Inhibition of CDKL2 (unknown origin) assessed as remaining activity at 1 uM by Kinome scan method relative to control
[13] = molecular target: Receptor-type tyrosine-protein kinase FLT3 (Homo sapiens) (UniProt P36888); experiment: Inhibition of human FLT3 assessed as residual activity at 1 uM using Poly(Ala,Glu,Lys,Tyr)6:2:5:1 as substrate in presence of 33P-ATP by ProQinase assay relative to control
[14] = molecular target: Mitogen-activated protein kinase 13 (Homo sapiens) (UniProt O15264); experiment: Inhibition of human p38delta assessed as residual activity at 1 uM using RBER-CHKtide as substrate in presence of 33P-ATP by ProQinase assay relative to control
[15] = molecular target: Tyrosine-protein kinase FRK (Homo sapiens) (UniProt P42685); experiment: Inhibition of FRK (unknown origin) assessed as remaining activity at 1 uM by Kinome scan method relative to control
[16] = molecular target: T2, Serine/threonine-protein kinase NLK (Homo sapiens) (UniProt Q9UBE8); experiment: Inhibition of human NLK assessed as residual activity at 1 uM using RBER-GSK3 as substrate in presence of 33P-ATP by ProQinase assay relative to control
T2 sequence (whole entry): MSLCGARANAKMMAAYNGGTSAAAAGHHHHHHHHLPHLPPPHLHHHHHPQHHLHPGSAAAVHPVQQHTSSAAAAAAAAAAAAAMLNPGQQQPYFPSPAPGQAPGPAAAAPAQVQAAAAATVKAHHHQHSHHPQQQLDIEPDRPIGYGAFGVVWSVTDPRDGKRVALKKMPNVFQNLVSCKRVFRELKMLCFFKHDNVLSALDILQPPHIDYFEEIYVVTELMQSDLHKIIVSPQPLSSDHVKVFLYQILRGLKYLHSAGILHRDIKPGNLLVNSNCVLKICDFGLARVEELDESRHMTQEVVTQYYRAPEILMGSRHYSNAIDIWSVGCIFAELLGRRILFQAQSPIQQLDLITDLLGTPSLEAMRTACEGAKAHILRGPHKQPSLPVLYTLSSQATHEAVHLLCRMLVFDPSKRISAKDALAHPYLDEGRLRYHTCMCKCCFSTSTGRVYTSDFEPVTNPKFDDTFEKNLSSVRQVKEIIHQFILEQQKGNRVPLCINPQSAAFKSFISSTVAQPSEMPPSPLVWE

[17] = molecular target: Serine/threonine-protein kinase MRCK alpha (Homo sapiens) (UniProt Q5VT25); experiment: Inhibition of MRCKA (unknown origin) assessed as remaining activity at 1 uM by Kinome scan method relative to control
[18] = molecular target: Mitogen-activated protein kinase kinase kinase 14 (Homo sapiens) (UniProt Q99558); experiment: Inhibition of human NIK assessed as residual activity at 1 uM using RBER-CHKtide as substrate in presence of 33P-ATP by ProQinase assay relative to control
[19] = molecular target: Protein kinase C zeta type (Homo sapiens) (UniProt Q05513); experiment: Inhibition of human PKCzeta assessed as residual activity at 1 uM using 3xChocktide-PKC(19-31) as substrate in presence of 33P-ATP by ProQinase assay relative to control
[20] = tested on: Hepatocyte growth factor receptor (Homo sapiens), P08581 [M1250T]; experiment: Inhibition of human MET M1250T mutant assessed as residual activity at 1 uM using poly(Ala,Glu,Lys,Tyr)6:2:5:1 as substrate in presence of 33P-ATP by ProQinase assay relative to control

Chain of Tyrosine-protein kinase FRK (Homo sapiens) (P42685 whole entry): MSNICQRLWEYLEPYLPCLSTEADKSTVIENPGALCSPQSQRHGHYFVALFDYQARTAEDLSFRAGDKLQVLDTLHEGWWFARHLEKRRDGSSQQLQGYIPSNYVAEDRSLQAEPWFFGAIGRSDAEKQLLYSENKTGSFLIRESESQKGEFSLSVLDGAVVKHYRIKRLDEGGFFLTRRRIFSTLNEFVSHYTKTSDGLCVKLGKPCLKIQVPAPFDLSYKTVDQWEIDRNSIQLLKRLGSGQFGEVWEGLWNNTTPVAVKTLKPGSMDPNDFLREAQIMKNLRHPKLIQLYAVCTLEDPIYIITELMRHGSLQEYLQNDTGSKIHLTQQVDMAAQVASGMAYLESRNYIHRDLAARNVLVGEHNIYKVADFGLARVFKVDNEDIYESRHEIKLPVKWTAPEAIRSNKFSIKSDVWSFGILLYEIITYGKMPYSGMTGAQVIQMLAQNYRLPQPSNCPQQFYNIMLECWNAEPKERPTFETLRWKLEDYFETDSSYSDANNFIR
Chain of Serine/threonine-protein kinase MRCK alpha (Homo sapiens) (Q5VT25 whole entry): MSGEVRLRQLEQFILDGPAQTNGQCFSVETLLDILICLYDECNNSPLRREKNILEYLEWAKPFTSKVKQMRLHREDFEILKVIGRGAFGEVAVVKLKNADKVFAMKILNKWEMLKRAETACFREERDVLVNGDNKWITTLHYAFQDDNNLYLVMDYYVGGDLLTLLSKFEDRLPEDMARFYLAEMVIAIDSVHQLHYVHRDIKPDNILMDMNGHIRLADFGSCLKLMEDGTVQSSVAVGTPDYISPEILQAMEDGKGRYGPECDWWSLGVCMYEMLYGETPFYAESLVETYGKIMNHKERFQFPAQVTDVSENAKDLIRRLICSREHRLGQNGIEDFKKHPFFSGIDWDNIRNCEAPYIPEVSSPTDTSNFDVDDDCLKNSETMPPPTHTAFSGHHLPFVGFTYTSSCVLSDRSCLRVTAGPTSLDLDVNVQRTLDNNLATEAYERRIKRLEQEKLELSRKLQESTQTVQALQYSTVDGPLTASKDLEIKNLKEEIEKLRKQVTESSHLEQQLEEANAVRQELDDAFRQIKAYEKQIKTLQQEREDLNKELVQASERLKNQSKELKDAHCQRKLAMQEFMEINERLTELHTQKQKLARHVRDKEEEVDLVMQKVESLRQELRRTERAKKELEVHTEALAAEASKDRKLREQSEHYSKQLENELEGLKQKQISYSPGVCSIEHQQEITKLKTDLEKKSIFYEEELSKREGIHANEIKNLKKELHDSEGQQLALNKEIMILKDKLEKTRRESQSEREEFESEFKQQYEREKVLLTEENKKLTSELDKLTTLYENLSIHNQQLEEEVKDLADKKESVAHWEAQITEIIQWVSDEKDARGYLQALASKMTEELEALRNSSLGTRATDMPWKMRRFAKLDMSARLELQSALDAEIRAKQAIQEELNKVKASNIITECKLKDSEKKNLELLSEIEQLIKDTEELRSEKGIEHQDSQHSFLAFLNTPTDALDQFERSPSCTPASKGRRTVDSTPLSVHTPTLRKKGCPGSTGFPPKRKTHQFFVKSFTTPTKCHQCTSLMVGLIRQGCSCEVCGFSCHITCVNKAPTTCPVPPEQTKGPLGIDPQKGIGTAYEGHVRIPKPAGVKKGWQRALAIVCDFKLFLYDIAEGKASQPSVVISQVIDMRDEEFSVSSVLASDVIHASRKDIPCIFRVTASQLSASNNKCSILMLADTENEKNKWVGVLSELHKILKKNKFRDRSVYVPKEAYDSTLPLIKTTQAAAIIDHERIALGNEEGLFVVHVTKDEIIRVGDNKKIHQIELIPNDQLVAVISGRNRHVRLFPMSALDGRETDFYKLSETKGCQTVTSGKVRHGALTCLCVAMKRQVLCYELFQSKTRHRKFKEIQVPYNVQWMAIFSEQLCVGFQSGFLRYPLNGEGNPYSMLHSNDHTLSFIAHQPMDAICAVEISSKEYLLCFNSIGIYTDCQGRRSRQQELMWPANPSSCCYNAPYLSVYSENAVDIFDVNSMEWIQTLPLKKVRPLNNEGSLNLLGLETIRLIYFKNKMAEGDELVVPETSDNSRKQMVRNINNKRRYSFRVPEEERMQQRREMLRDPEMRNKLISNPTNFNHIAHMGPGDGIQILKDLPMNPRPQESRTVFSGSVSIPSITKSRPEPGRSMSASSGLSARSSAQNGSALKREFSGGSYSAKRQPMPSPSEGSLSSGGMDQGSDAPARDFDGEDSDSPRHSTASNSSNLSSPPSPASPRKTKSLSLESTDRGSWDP
Chain of Glycogen synthase kinase-3 beta (Homo sapiens) (P49841 whole entry, looked up): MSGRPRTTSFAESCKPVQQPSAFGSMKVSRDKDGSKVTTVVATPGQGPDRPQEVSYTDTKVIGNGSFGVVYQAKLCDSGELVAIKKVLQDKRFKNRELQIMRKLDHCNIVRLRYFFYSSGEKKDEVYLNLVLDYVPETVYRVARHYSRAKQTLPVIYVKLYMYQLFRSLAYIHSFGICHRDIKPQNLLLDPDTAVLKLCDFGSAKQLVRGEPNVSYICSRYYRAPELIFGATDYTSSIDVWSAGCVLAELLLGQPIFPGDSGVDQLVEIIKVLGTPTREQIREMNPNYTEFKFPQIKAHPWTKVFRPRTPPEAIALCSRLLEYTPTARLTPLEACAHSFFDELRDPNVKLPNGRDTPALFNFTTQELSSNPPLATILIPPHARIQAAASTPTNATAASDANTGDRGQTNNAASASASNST
Chain of Serine/threonine-protein kinase MARK1 (Homo sapiens) (Q9P0L2 whole entry, looked up): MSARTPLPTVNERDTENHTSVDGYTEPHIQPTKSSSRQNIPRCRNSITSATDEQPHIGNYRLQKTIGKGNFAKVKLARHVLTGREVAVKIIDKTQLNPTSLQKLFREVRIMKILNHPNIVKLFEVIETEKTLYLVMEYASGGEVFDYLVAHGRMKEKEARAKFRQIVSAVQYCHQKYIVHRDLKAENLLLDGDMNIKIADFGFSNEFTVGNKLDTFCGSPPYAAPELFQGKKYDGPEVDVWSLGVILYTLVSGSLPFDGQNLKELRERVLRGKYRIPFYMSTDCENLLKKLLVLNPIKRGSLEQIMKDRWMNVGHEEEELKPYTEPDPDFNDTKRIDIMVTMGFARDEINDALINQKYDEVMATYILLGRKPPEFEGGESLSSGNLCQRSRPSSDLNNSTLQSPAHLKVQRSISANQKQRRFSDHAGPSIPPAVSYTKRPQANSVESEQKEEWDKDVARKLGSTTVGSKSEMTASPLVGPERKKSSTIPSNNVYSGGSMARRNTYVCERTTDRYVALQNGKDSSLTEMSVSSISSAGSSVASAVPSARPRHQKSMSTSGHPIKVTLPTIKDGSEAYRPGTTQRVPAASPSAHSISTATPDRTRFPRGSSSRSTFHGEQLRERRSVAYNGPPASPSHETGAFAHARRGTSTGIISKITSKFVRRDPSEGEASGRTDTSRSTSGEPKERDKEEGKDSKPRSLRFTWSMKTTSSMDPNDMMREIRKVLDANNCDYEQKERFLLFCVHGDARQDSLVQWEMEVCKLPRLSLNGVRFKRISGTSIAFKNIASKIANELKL
Chain of Mitogen-activated protein kinase kinase kinase 14 (Homo sapiens) (Q99558 whole entry, looked up): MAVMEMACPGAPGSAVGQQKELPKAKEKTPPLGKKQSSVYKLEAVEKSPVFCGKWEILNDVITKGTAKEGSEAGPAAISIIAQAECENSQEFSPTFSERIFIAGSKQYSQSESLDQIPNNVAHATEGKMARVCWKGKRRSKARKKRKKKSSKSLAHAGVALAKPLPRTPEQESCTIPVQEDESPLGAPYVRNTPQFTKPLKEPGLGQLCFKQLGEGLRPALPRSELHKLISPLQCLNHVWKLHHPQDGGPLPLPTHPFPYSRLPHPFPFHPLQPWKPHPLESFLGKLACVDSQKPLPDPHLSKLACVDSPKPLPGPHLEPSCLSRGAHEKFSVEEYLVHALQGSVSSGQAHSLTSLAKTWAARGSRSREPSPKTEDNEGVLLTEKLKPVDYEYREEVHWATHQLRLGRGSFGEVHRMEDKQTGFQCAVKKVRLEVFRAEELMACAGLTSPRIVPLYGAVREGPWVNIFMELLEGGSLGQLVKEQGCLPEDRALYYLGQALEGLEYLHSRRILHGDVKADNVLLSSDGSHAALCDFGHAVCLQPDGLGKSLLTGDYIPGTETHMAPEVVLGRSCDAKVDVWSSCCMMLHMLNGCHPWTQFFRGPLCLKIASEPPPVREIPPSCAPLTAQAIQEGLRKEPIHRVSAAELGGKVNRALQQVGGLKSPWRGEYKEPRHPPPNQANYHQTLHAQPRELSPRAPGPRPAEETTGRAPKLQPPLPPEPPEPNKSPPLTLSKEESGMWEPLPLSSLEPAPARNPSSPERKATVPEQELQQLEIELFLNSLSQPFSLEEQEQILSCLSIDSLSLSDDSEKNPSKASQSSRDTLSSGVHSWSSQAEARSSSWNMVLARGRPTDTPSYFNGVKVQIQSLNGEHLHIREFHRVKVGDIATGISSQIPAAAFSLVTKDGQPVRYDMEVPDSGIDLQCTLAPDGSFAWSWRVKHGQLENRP
Chain of Cyclin-dependent kinase-like 2 (Homo sapiens) (Q92772 whole entry): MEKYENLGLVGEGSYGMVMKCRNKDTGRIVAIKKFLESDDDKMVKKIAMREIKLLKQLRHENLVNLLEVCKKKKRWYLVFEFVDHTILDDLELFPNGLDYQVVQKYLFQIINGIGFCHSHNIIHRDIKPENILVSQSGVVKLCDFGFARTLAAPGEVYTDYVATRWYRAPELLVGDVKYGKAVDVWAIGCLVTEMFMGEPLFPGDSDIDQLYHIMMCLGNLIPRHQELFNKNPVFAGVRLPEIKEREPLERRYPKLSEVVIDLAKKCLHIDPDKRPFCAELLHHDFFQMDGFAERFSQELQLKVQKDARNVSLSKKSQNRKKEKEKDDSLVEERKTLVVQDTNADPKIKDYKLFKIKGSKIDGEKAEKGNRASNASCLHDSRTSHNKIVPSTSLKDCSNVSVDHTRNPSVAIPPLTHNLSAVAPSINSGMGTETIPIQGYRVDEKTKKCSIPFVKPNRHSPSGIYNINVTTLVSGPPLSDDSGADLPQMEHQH

SMILES: O=C1c2ccc(Nc3ccc(F)cc3F)cc2CCc2ccc(OC[C@H](O)CO)cc21 [Skepinone-L]
- Activity [1]: 96%
- pIC50 [2]: 5.71
- Activity [3]: Active
- Activity [4]: 88%
- Activity [5]: 97%
- Activity [6]: 96%
- Activity [7]: 97%
- Activity [8]: 100%
- Activity [9]: 88%
- Activity [10]: 102%
- Activity [11]: 81%
- Activity [12]: 100%
- Activity [13]: 106%
- Activity [14]: 80%
- Activity [15]: 100%
- Activity [16]: 87%
- Activity [17]: 100%
- Activity [18]: 96%
- Activity [19]: 109%
- Activity [20]: 100%
